The test system of this assay is L-lysine-producing bacterium, WC196 LC/pCABD2 strain. The assay is described as follows: L-lysine production culture in small fermentation tank with addition of thiourea or urea to the medium. It counts as cell-based, Escherichia coli. As to the method:
The glycerol stock of the L-lysine-producing bacterium, WC196 LC/pCABD2 strain, was inoculated in an amount of one loop to the LB agar medium (1% of tryptone, 0.5% of yeast extract, 0.5% of sodium chloride, 1.5% of agarose) containing 20 mg/L of streptomycin, and cultured at 37° C. for 24 hours as static culture.
The cells grown in the aforementioned preculture were scraped off from the medium, suspended in a 0.85% NaCl aqueous solution, and inoculated into 300 mL of MS glucose liquid fermentation medium or MS fatty acid liquid fermentation medium having the following compositions and contained in a small fermentation tank having a total volume of 1 L at a turbidity of 0.04 measured at a wavelength of 600 nm to start the culture. With the MS glucose liquid fermentation medium, the culture was performed at a culture temperature of 37° C. and a stirring rate of 300 rpm for 16 hours with the addition of 20 mg/L of streptomycin and aeration of compressed air sterilized with a sterilization filter at 1 vvm. Furthermore, pH was maintained at 6.7 with ammonia gas. With the MS fatty acid liquid fermentation medium, the culture was performed at a culture temperature of 37° C. and a stirring rate of 700 rpm for 42 hours with addition of 20 mg/L of streptomycin and aeration of compressed air sterilized with a sterilization filter at 1 vvm. Furthermore, pH was maintained at 6.7 with ammonia gas.
The culture was performed with adding 1 mM or 5 mM thiourea as an antioxidant at the time of the start of the culture. As controls, the culture was performed under a condition in which thiourea was not added (referred to as a thiourea-free condition), and a condition in which urea was added at the same concentrations as thiourea (referred to as a urea addition condition).
During the culture, an appropriate volume of each liquid medium was sampled, and the amount of L-lysine in the culture supernatant was measured with a Biotech Analyzer AS310 (Sakura SI). Complete consumption of the oleate added to the medium was confirmed by using a gas chromatograph GC-2014 (Shimadzu). Complete consumption of the glucose added to the medium was separately confirmed by using a Biotech Analyzer AS310. Furthermore, a Tween 80 solution was added at a final concentration of 1.0% (v/v) immediately after the end of the culture, the resultant was appropriately diluted, and turbidity was measured at a wavelength of 600 nm to measure cell amount at the time of the end of the culture.

Setting [1] is: carbon source fatty acid (sodium oleate), additive 1 mM.
Setting [2] is: carbon source fatty acid (sodium oleate), additive 5 mM.
The mark [3] stands for this setting: carbon source glucose, additive 1 mM.
Setting [4] is: carbon source glucose, additive 5 mM.

Regarding `NC(N)=O` [Urea, urea], the “Culture time required for consumption of carbon source” value reads like this: under setting [1], 41.5 h; under setting [2], 41.5 h; under setting [3], 16.0 h; under setting [4], 16.0 h. Further, the “L-Lysine accumulation at the end of culture” value runs as follows: under setting [1], 4.8 g/L; under setting [2], 4.8 g/L; under setting [3], 4.6 g/L; under setting [4], 4.6 g/L. Moreover, the “OD600 at the end of culture” value under setting [1] was 6.8, the “OD600 at the end of culture” value under setting [2] is 6.9, the “OD600 at the end of culture” value under setting [3] worked out at 5.2 and the “OD600 at the end of culture” value under setting [4] came out at 5.2.

Take `NC(N)=S` [Thiourea, thiourea]: the “Culture time required for consumption of carbon source” value is 33.0 h under setting [1], 33.0 h under setting [2], 16.0 h under setting [3] and 16.0 h under setting [4]. The “L-Lysine accumulation at the end of culture” value was 5.2 g/L under setting [1], 5.2 g/L under setting [2], 4.7 g/L under setting [3] and 4.7 g/L under setting [4]. In addition, the “OD600 at the end of culture” value is, setting by setting: under setting [1], 7.3; under setting [2], 7.5; under setting [3], 5.3; under setting [4], 5.2.

These data come from US8951760B2, “Method for producing an L-amino acid” (priority 2010, dated 2015).
